Assay results taken from patent publication US20120202814A1, “COMPOUNDS WITH DDX3 INHIBITORY ACTIVITY AND USES THEREOF” (UNIVERSITÀ DEGLI STUDI DI SIENA, priority 2009, published 2012).

Key:
[1] = molecular target: T1, human DDX3 (ATPase activity) (Homo sapiens, UniProt O00571); experiment: Human DDX3 ATPase activity assay (luciferase-based luminescence); type: biochemical; details: DDX3 ATPase activity; read-out: Ki (μM), apparent equilibrium dissociation constant for the inhibitor to the target enzyme DDX3
T1 construct: made in house; host or cells: E. coli
Protocol: ATPase activity was tested with a luciferase-based luminescence assay (Easylite-Kinase, Perkin Elmer) on 96 wells microtiter plates. Briefly, recombinant purified human DDX3 (50-100 ng) was incubated in a 15 μL total reaction volume with reaction buffer (25 mM TrisHCl pH 7.5, 5 mM MgCl2), in the presence of increasing amounts of ATP and/or different combinations of ATP and the inhibitor to be tested. Reference curves in the absence of inhibitor (giving the 100% of enzymatic activity) and in the absence of enzyme (giving the baseline), were also included in each experiment. Reading was performed with a Microbeta Trilux (Perkin Elmer) luminometer, according to the manufacturer's protocol.
ATPase reactions were performed as described, in the presence of increasing amounts of inhibitor and variable ATP concentrations. Variations of the initial velocities of the reaction as a function of ATP concentrations in the absence or presence of 4 were analyzed with the equation: […]
Variation of the % inhibition as a function of compound FE15 at different ATP concentrations were fitted to the equation for cooperative binding: […]
where Vmax is the apparent maximal rate of the reaction in the absence of the inhibitor, [I] is the variable inhibitor concentration, n is the cooperativity index and Ki(app) is the apparent inhibition constant. Comparatively, fitting was done with the same Eq. (2) where n was kept fixed at the value of 1 (non-cooperativity hypothesis). F test was used to compare the two fittings and p value was calculated.
Human recombinant DDX3 was cloned, expressed and purified as described (Franca et al. Proteins 2007, 67, 1128-37).
The anti-DDX3 activity of the compounds of the invention was evaluated by in vitro ATPase activity assay using the recombinant human DDX3 protein produced in E. coli. The potency of inhibition (Ki) for each molecule was calculated, representing the concentration of the inhibitor able to reduce the DDX3 ATPase activity by 50%

T1 sequence (O00571 whole entry): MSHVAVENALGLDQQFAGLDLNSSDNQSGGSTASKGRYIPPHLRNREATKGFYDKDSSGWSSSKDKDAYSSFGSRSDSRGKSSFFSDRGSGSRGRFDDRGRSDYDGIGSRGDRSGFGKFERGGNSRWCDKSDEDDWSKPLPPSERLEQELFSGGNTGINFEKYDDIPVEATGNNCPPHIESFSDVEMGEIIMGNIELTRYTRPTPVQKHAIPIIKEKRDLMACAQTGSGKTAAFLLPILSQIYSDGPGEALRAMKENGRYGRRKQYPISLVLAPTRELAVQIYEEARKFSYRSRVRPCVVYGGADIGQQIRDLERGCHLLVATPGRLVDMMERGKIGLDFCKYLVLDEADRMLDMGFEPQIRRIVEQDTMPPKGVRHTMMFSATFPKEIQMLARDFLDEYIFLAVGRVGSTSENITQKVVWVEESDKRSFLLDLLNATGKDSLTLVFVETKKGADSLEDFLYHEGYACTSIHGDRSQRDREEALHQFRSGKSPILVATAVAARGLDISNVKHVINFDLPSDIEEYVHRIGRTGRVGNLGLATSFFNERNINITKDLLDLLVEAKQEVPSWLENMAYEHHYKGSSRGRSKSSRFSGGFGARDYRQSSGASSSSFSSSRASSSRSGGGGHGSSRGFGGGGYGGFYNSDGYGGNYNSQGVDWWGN

melting point | Ki [1] | SMILES
124 to 126 °C |  | COC(CN1C(=O)/C(=C/c2cccc(Br)c2)SC1=S)OC [Compound 3d, (Z)-5-(3-bromobenzylidene)-3-(2,2-dimethoxyethyl)-2-thioxothiazolidin-4-one]
 | 0.9 µM | COc1cc(/C=C2\SC(=S)N(CCC(=O)N3CCCc4ccccc43)C2=O)cc(OC)c1OC [FE-69]
150 to 152 °C |  | O=C1/C(=C/c2ccco2)SC(=S)N1CCc1ccccc1 [Compound 3g, (Z)-5-((furan-2-yl)methylene)-3-phenethyl-2-thioxothiazolidin-4-one]
102 to 104 °C |  | O=C1/C(=C/c2cccc(Br)c2)SC(=S)N1CCc1ccccc1 [Compound 3a, (Z)-5-(3-bromobenzylidene)-3-phenethyl-2-thioxothiazolidin-4-one]
 | 0.1 µM | COc1cc(/C=C2\SC(=S)N(CCC(=O)Nc3ccccc3O)C2=O)cc(OC)c1OC [FE-74]
 | 0.5 µM | CC(=O)Nc1ccc(/C(C)=N/Nc2nc(NCc3ccccc3)nc(N3CCOCC3)n2)cc1 [FE-56AN]
240 to 241 °C | 1 µM | O=C(CCN1C(=O)/C(=C/c2ccc3c(c2)OCO3)SC1=S)Nc1ccccc1O [Compound 35f, 3-((Z)-5-((Benzo[d][1,3]dioxol-5-yl)methylene)-4-oxo-2-thioxothiazolidin-3-yl)-N-(2-hydroxyphenyl)propanamide]
 | 0.4 µM | O=C(CCN1C(=O)/C(=C/c2ccc3c(c2)OCO3)SC1=S)Nc1ccccc1C(=O)O [FE-70]
207 to 208 °C | 7.6 µM | O=C(CCN1C(=O)/C(=C/c2cccc(F)c2)SC1=S)Nc1ccccc1[N+](=O)[O-] [Compound 35h, 3-((Z)-5-(3-Fluorobenzylidene)-4-oxo-2-thioxothiazolidin-3-yl)-N-(2-nitrophenyl)propanamide]
 | 4.3 µM | O=C(NCCN1C(=O)/C(=C/c2cccc(F)c2)SC1=S)c1ccccc1O [Compound 3k, N-(2-((Z)-5-(3-Fluorobenzylidene)-4-oxo-2-thioxothiazolidin-3-yl)ethyl)-2-hydroxy-benzamide]
 | 18 µM | Clc1ccc(/C=N/Nc2nc(Nc3ccccc3)nc(Nc3ccccc3)n2)cc1Cl [FE-56O]
 | 33 µM | Oc1ccc(/C=N/Nc2nc(Nc3ccccc3)nc(Nc3ccccc3)n2)c(O)c1 [FE-56I]
 | 2 µM | O=C1Nc2ccccc2/C1=N\Nc1nc(Nc2cccc(Cl)c2)nc(N2CCOCC2)n1 [FE-56AD]
 | 3.2 µM | Clc1ccccc1-c1ccc(/C=N/Nc2nc(Nc3ccccc3)nc(N3CCOCC3)n2)o1 [FE-56AA]
144 to 144.5 °C | 2.9 µM | O=C1Nc2ccccc2/C1=N/Nc1nc(NCc2cccc(Cl)c2)nc(N2CCOCC2)n1 [Compound 14f, (Z)-3-(2-(4-(3-Chlorobenzylamino)-6-morpholino-1,3,5-triazin-2-yl)hydrazono)indolin-2-one]
155.5 to 156 °C | 2.6 µM | Fc1ccc(Nc2nc(N/N=C/c3c(F)cccc3F)nc(N3CCOCC3)n2)cc1 [Compound 11c, (E)-4-(2-(2,6-difluorobenzylidene)hydrazinyl)-N-(4-fluorophenyl)-6-morpholino-1,3,5-triazin-2-amine]
138 to 140 °C |  | O=C1/C(=C/c2cccnc2)SC(=S)N1CCc1ccccc1 [Compound 3h, (Z)-3-phenethyl-5-((pyridin-3-yl)methylene)-2-thioxothiazolidin-4-one]
 | 3.6 µM | O=[N+]([O-])c1ccc(Cl)c(-c2ccc(/C=N/Nc3nc(Nc4ccc(F)cc4)nc(N4CCOCC4)n3)o2)c1 [FE-56V]
174 to 176 °C |  | O=C1/C(=C/c2ccc3ccccc3c2)SC(=S)N1CCc1ccccc1 [Compound 3i, (Z)-5-((naphthalen-3-yl)methylene)-3-phenethyl-2-thioxothiazolidin-4-one]
 | 4.2 µM | O=C(NCCN1C(=O)/C(=C/c2cccc(Br)c2)SC1=S)c1ccccc1O [Compound 3j, N-(2-((Z)-5-(3-Bromobenzylidene)-4-oxo-2-thioxothiazolidin-3-yl)ethyl)-2-hydroxybenzamide]

melting point | Ki [1] | SMILES
112 to 113 °C |  | O=C1/C(=C/c2cccc(Br)c2)SC(=S)N1Cc1ccccc1 [Compound 3b, (Z)-5-(3-bromobenzylidene)-3-benzyl-2-thioxothiazolidin-4-one]
208 to 209 °C | 97 µM | Cc1cccc(/C=C2\SC(=S)N(CCC(=O)Nc3ccccc3O)C2=O)c1 [Compound 35d, 3-((Z)-5-(3-Methylbenzylidene)-4-oxo-2-thioxothiazolidin-3-yl)-N-(2-hydroxyphenyl) propanamide]
163.5 to 164 °C | 62 µM | Oc1ccccc1/C=N/Nc1nc(NCc2cccc(Cl)c2)nc(N2CCOCC2)n1 [Compound 15j, (E)-2-((2-(4-(3-chlorobenzylamino)-6-morpholino-1,3,5-triazin-2-yl)hydrazono)methyl)phenol]
 | 28 µM | O=C(CCN1C(=O)C/C(=C\c2cccc(Br)c2)C1=O)Nc1ccccc1O [Compound 6b, 3-((E)-3-(3-bromobenzylidene)-2,5-dioxopyrrolidin-1-yl)-N-(2-hydroxyphenyl)propanamide]
 | 1.9 µM | COc1ccc(Nc2nc(NCc3ccco3)nc(N/N=C/c3ccc(-c4ccccc4[N+](=O)[O-])o3)n2)cc1 [FE-56Z]
200 to 202 °C | 10 µM | COc1cccc(/C=C2\SC(=S)N(CCC(=O)Nc3ccccc3O)C2=O)c1 [Compound 35e, 3-((Z)-5-(3-Methoxybenzylidene)-4-oxo-2-thioxothiazolidin-3-yl)-N-(2-hydroxyphenyl) propanamide]
204 to 206 °C | 8.7 µM | O=C(CCN1C(=O)/C(=C/c2cccc(Br)c2)SC1=S)Nc1ccccc1[N+](=O)[O-] [Compound 35g, 3-((Z)-5-(3-Bromobenzylidene)-4-oxo-2-thioxothiazolidin-3-yl)-N-(2-nitrophenyl)propanamide]
 | 6.3 µM | O=C(Oc1cccc(/C=N/Nc2nc(Nc3ccccc3)nc(N3CCOCC3)n2)c1)c1ccco1 [FE-56U]
235 to 237 °C | 0.5 µM | O=C(CCN1C(=O)/C(=C/c2cc(F)cc(F)c2)SC1=S)Nc1ccccc1O [Compound 35c, 3-((Z)-5-(3,5-Difluorobenzylidene)-4-oxo-2-thioxothiazolidin-3-yl)-N-(2-hydroxyphenyl) propanamide]
 | 9 µM | OCCc1cc(Nc2ccc(F)cc2)nc(N/N=C/c2ccccc2O)n1 [Compound 22, 2-((2-(4-(4-Fluorophenylamino)-6-(2-hydroxyethyl)pyrimidin-2-yl)hydrazono)methyl)phenol]
159 to 161 °C |  | C#CN1C(=O)/C(=C/c2cccc(Br)c2)SC1=S [Compound 3c, (Z)-5-(3-bromobenzylidene)-3-ethynyl-2-thioxothiazolidin-4-one]
 | 1.6 µM | Cc1ccc(Nc2nc(N/N=C/c3ccccc3O)nc(N3CCOCC3)n2)cc1Cl [FE-56AM]
113 to 115 °C |  | CCCCN1C(=O)/C(=C/c2cccc(Br)c2)SC1=S [Compound 3e, (Z)-5-(3-bromobenzylidene)-3-butyl-2-thioxothiazolidin-4-one]
225 to 226 °C | 8.5 µM | Fc1ccc(Nc2nc(N/N=C/c3ccc4ccccc4c3)nc(N3CCOCC3)n2)cc1 [Compound 11b, (E)-N-(4-fluorophenyl)-4-morpholino-6-(2-(naphthalen-2-ylmethylene)hydrazinyl)-1,3,5-triazin-2-amine]
220 to 220.4 °C | 86 µM | Fc1ccc(Nc2nc(N/N=C/c3cccc4ccccc34)nc(N3CCOCC3)n2)cc1 [Compound 11a, (E)-N-(4-fluorophenyl)-4-morpholino-6-(2-(naphthalen-1-ylmethylene)hydrazinyl)-1,3,5-triazin-2-amine]
 | 2 µM | COc1ccc(/C=C2\SC(=S)N(CCC(=O)Nc3ccccc3C(=O)O)C2=O)cc1 [FE-77]
 | 3.2 µM | Cc1ccc(Nc2nc(N/N=C3/C(=O)Nc4ccccc43)nc(N3CCOCC3)n2)cc1Cl [FE-56AH]
122 to 125 °C |  | COc1cccc(/C=C2\SC(=S)N(CCc3ccccc3)C2=O)c1 [Compound 3f, (Z)-5-(3-methoxybenzylidene)-3-phenethyl-2-thioxothiazolidin-4-one]
 | 2.2 µM | CC(=O)Nc1ccc(/C(C)=N/Nc2nc(Nc3ccccc3)nc(N3CCOCC3)n2)cc1 [FE-56AI]
